“And” between values parts separate entries of the source, which are not always exact repeats. Equal values may be shown once. Read-outs that look alike come from different tables or passages of the source.
Key:
Format in all cases: cell-based
Pseudomonas aeruginosa = test: Broth microdilution MIC (CLSI), Pseudomonas aeruginosa
Text: (§1) (i) Panels of engineered bacterial strains containing various combinations of porin and efflux mutations were used. The construction of all the strains used in the study is described in detail in references, [44], and [45]. (ii) KPC-producing clinical isolates and their derivatives that lost KPC plasmids were used also. These strains and their origins are described in the Table S2. (iii) Finally, KPC-producing clinical isolates enriched in strains with porin mutations were used. The mutations identified include various deletions, insertions, nonsense mutations, and decreased expression. Most of the isolates were obtained from JMI Laboratories or International Health Management Associates (IHMA); they were collected in the course of global surveillance studies.
(§2) Bacterial isolates were subjected to broth microdilution susceptibility testing, performed according to Clinical and Laboratory Standards Institute (CLSI) methods ([46]), using panels prepared in-house. […] Xeruborbactam was synthesized at Qpex Biopharma, San Diego, CA. Avibactam was purchased from eNovation Chemicals LLC, Bridgewater, NJ, USA; zidebactam was from MedKoo Biosciences, Inc., Morrisville, NC, and nacubactam was from Advanced ChemBlocks, Hayward, CA. Durlobactam was synthesized at Acme Bioscience, Palo Alto, CA, USA.

Klebsiella pneumoniae = test: microbe, parasite or virus in culture
Text: as §1, §2

Escherichia coli = test: Broth microdilution MIC (CLSI), Escherichia coli; conditions: Escherichia coli
Text: as §1, §2

Acinetobacter baumannii = test: Broth microdilution MIC (CLSI), Acinetobacter baumannii; conditions: Acinetobacter baumannii
Text: as §1, §2

[1] = Pseudomonas aeruginosa, strain PAM1020, wild type, read-out: MIC
[2] = Pseudomonas aeruginosa, strain PAM1032, nalB (MexAB-OprM overexpression)
[3] = Pseudomonas aeruginosa, strain PAM1033, nfxB (MexCD-OprJ overexpression)
[4] = Pseudomonas aeruginosa, strain PAM1034, nfxC (MexEF-OprN overexpression)
[5] = Pseudomonas aeruginosa, strain PAM1106, mexA::Tet
[6] = Pseudomonas aeruginosa, strain PAM1154, oprM::Hg
[7] = Klebsiella pneumoniae, KPM1026a, parent, read-out: MIC
[8] = Klebsiella pneumoniae, KPM3532, TolQ::M189K
[9] = Klebsiella pneumoniae, KPM3534, TolQ::S31F
[10] = Klebsiella pneumoniae, KPM4235, TolQ::IP(183–1844)PR
[11] = Klebsiella pneumoniae, KPM4236, TolQ::TAA at aa 103
[12] = Klebsiella pneumoniae, KPM4238, TolQ::S25F
[13] = Klebsiella pneumoniae, KPM4239, TolQ::S28F
[14] = Klebsiella pneumoniae, KPM4240, TolQ::S25Y
[15] = Klebsiella pneumoniae, strain KPM1026a, wild type, read-out: MIC
[16] = Klebsiella pneumoniae, strain KPM1027, ramR, read-out: MIC
[17] = Klebsiella pneumoniae, strain KPM1171, ramR ompK36_1171, read-out: MIC
[18] = Klebsiella pneumoniae, strain KPM2040, ompK36_2040, read-out: MIC
[19] = Klebsiella pneumoniae, strain KPM2600, ΔompK35
[20] = Klebsiella pneumoniae, strain KPM2613, ΔompK35 ompK36_2040
[21] = Klebsiella pneumoniae, strain KPM2696, ΔacrB
[22] = strain ECM5497, wild type, read-out: MIC
[23] = strain ECM6502, marR (AcrAB overexpression)
[24] = strain AB1007, wild type, read-out: MIC
[25] = strain ACM1015, ΔadeIJK ΔadeABC
[26] = strain ACM1027, adeN (AdeIJK overexpression)
[27] = strain ACM1030, adeS (AdeABC overexpression)
[28] = PAM1154 (oprM::Hg), xeruborbactam 0 µg/ml
[29] = KPM3532 (TolQ::M189K), with xeruborbactam at 4 μg/mL
[30] = KPM3532 (TolQ::M189K), with xeruborbactam at 8 μg/mL
[31] = KPM3534 (TolQ::S31F), with xeruborbactam at 4 μg/mL
[32] = KPM3534 (TolQ::S31F), with xeruborbactam at 8 μg/mL
[33] = Klebsiella pneumoniae, KPM3532 (TolQ::M189K), alone
[34] = Klebsiella pneumoniae, KPM3534 (TolQ::S31F), alone
[35] = AB1007 (no beta-lactamase), xeruborbactam 0 µg/ml, read-out: MIC
[36] = AB1007, xeruborbactam 2 µg/ml, read-out: MIC
[37] = AB1007, xeruborbactam 4 µg/ml, read-out: MIC
[38] = AB1007, xeruborbactam 8 µg/ml, read-out: MIC

## NC(=O)[C@@H]1CC[C@@H]2CN1C(=O)N2OS(=O)(=O)O [Avibactam]
Pseudomonas aeruginosa; Pseudomonas aeruginosa, after inactivation of MexAB-OprM, read-out: MIC
  MIC: 128 mg/L
Pseudomonas aeruginosa; Pseudomonas aeruginosa, before inactivation of MexAB-OprM (wild type), read-out: MIC
  MIC: > 256 mg/L
Pseudomonas aeruginosa; [1]
  MIC: > 256 mg/L
Pseudomonas aeruginosa; [2]
  MIC: > 256 mg/L
Pseudomonas aeruginosa; [3]
  MIC: 32 mg/L
Pseudomonas aeruginosa; [4]
  MIC: > 256 mg/L
Pseudomonas aeruginosa; [5]
  MIC: 128 mg/L
Pseudomonas aeruginosa; [6]
  MIC: 128 mg/L
Klebsiella pneumoniae; [7]
  MIC: 16 mg/L
Klebsiella pneumoniae; [8]
  MIC: > 64 mg/L
Klebsiella pneumoniae; [9]
  MIC: > 64 mg/L
Klebsiella pneumoniae; [10]
  MIC: > 64 mg/L
Klebsiella pneumoniae; [11]
  MIC: > 64 mg/L
Klebsiella pneumoniae; [12]
  MIC: > 64 mg/L
Klebsiella pneumoniae; [13]
  MIC: > 64 mg/L
Klebsiella pneumoniae; [14]
  MIC: > 64 mg/L
Klebsiella pneumoniae; [15]
  MIC: 16 mg/L
Klebsiella pneumoniae; [16]
  MIC: 16 mg/L
Klebsiella pneumoniae; [17]
  MIC: > 256 mg/L
Klebsiella pneumoniae; [18]
  MIC: 256 mg/L
Klebsiella pneumoniae; [19]
  MIC: 16 mg/L
Klebsiella pneumoniae; [20]
  MIC: 256 mg/L
Klebsiella pneumoniae; [21]
  MIC: 16 mg/L
Escherichia coli; [22]
  MIC: 16 mg/L
Escherichia coli; strain ECM6001, ΔacrB
  MIC: 16 mg/L
Escherichia coli; [23]
  MIC: 8 mg/L
Acinetobacter baumannii; [24]
  MIC: > 256 mg/L
Acinetobacter baumannii; strain ACM1013, ΔadeIJK
  MIC: > 256 mg/L
Acinetobacter baumannii; strain ACM1014, ΔadeABC
  MIC: > 256 mg/L
Acinetobacter baumannii; [25]
  MIC: > 256 mg/L
Acinetobacter baumannii; [26]
  MIC: > 256 mg/L
Acinetobacter baumannii; [27]
  MIC: > 256 mg/L

## CO/N=C(\C(=O)N[C@@H]1C(=O)N2C(C(=O)[O-])=C(C[N+]3(C)CCCC3)CS[C@H]12)c1csc(N)n1 [Cefepime]
Pseudomonas aeruginosa; [28]
  MIC: 0.5 mg/L
Pseudomonas aeruginosa; PAM1154, xeruborbactam 2 µg/ml
  MIC: 0.125 mg/L
Pseudomonas aeruginosa; PAM1154, xeruborbactam 4 µg/ml
  MIC: 0.125 mg/L
Pseudomonas aeruginosa; PAM1154, xeruborbactam 8 µg/ml
  MIC: 0.06 mg/L
Pseudomonas aeruginosa; [1]
  MIC: 0.5 mg/L
Pseudomonas aeruginosa; [2]
  MIC: 4 mg/L
Pseudomonas aeruginosa; [3]
  MIC: 4 mg/L
Pseudomonas aeruginosa; [4]
  MIC: 0.5 mg/L
Pseudomonas aeruginosa; [5]
  MIC: 0.25 mg/L
Pseudomonas aeruginosa; [6]
  MIC: 0.125 mg/L
Klebsiella pneumoniae; KP1074, in the presence of 8 μg/mL xeruborbactam
  fold below the MIC that corresponds to complete inhibition of KPC: 2- to 8 fold
Klebsiella pneumoniae; KP1074, with xeruborbactam 2 µg/ml
  MIC: 0.5 mg/L
Klebsiella pneumoniae; KP1074, with xeruborbactam 4 µg/ml
  MIC: 0.25 mg/L
Klebsiella pneumoniae; KP1074, with xeruborbactam 8 µg/ml
  MIC: 0.125 mg/L
Klebsiella pneumoniae; KPM1026a (no beta-lactamase), xeruborbactam 0 µg/ml
  MIC: 0.03 mg/L
Klebsiella pneumoniae; KPM1026a, with xeruborbactam at 4 μg/mL
  fold decrease compared to MIC of antibiotic alone: 2 fold
Klebsiella pneumoniae; KPM1026a, with xeruborbactam at 8 μg/mL
  fold decrease compared to MIC of antibiotic alone: 16 fold
Klebsiella pneumoniae; KPM1026a, xeruborbactam 2 µg/ml
  MIC: 0.015 mg/L
Klebsiella pneumoniae; KPM1026a, xeruborbactam 4 µg/ml
  MIC: 0.015 mg/L
Klebsiella pneumoniae; KPM1026a, xeruborbactam 8 µg/ml
  MIC: 0.002 mg/L
Klebsiella pneumoniae; [29]
  fold decrease compared to MIC of antibiotic alone: 2 fold
Klebsiella pneumoniae; [30]
  fold decrease compared to MIC of antibiotic alone: 4 fold
Klebsiella pneumoniae; [31]
  fold decrease compared to MIC of antibiotic alone: 4 fold
Klebsiella pneumoniae; [32]
  fold decrease compared to MIC of antibiotic alone: 8 fold
Klebsiella pneumoniae; Klebsiella pneumoniae, BAA2814, KPC-3-producing KP1074 (BAA-2814), xeruborbactam none, read-out: MIC
  MIC: 256 mg/L
Klebsiella pneumoniae; Klebsiella pneumoniae, KPM1026a, alone, read-out: MIC
  MIC: 0.03 mg/L
Klebsiella pneumoniae; [7]
  MIC: 0.03 mg/L
Klebsiella pneumoniae; Klebsiella pneumoniae, KPM1211 (KP1074 after loss of pKpQIL), read-out: MIC
  MIC: 0.5 mg/L
Klebsiella pneumoniae; Klebsiella pneumoniae, KPM1271 (KPM1026a/KPC-3), alone, read-out: MIC
  MIC: 4 mg/L
Klebsiella pneumoniae; Klebsiella pneumoniae, KPM1281 (KPM1026a/NDM-1), alone, read-out: MIC
  MIC: 16 mg/L
Klebsiella pneumoniae; [33]
  MIC: 0.06 mg/L
Klebsiella pneumoniae; [8]
  MIC: 0.06 mg/L
Klebsiella pneumoniae; [34]
  MIC: 0.125 mg/L
Klebsiella pneumoniae; [9]
  MIC: 0.125 mg/L
Klebsiella pneumoniae; Klebsiella pneumoniae, KPM4127 (KPM3532 TolQ::M189K/KPC-3), alone
  MIC: 8 mg/L
Klebsiella pneumoniae; Klebsiella pneumoniae, KPM4128 (KPM3534 TolQ::S31F/KPC-3), alone
  MIC: 32 mg/L
Klebsiella pneumoniae; Klebsiella pneumoniae, KPM4129 (KPM3532 TolQ::M189K/NDM-1), alone
  MIC: 8 mg/L
Klebsiella pneumoniae; Klebsiella pneumoniae, KPM4130 (KPM3534 TolQ::S31F/NDM-1), alone
  MIC: 32 mg/L
Klebsiella pneumoniae; [10]
  MIC: 0.125 mg/L
Klebsiella pneumoniae; [11]
  MIC: 0.125 mg/L
Klebsiella pneumoniae; [12]
  MIC: 0.125 mg/L
Klebsiella pneumoniae; [13]
  MIC: 0.125 mg/L
Klebsiella pneumoniae; [14]
  MIC: 0.125 mg/L
Klebsiella pneumoniae; [15]
  MIC: 0.03 mg/L
Klebsiella pneumoniae; [16]
  MIC: 0.25 mg/L
Klebsiella pneumoniae; [17]
  MIC: 2 mg/L
Klebsiella pneumoniae; [18]
  MIC: 0.125 mg/L
Klebsiella pneumoniae; [19]
  MIC: 0.25 mg/L
Klebsiella pneumoniae; [20]
  MIC: 0.25 mg/L
Klebsiella pneumoniae; [21]
  MIC: 0.03 mg/L
Escherichia coli; [22]
  MIC: 0.03 mg/L
Escherichia coli; strain ECM6001, ΔacrB
  MIC: 0.03 mg/L
Escherichia coli; [23]
  MIC: 0.125 mg/L
Acinetobacter baumannii; [35]
  MIC: 2 mg/L
Acinetobacter baumannii; [36]
  MIC: 2 mg/L
Acinetobacter baumannii; [37]
  MIC: 1 mg/L
Acinetobacter baumannii; [38]
  MIC: 0.25 mg/L
Acinetobacter baumannii; [24]
  MIC: 4 mg/L
Acinetobacter baumannii; strain ACM1013, ΔadeIJK
  MIC: 4 mg/L
Acinetobacter baumannii; strain ACM1014, ΔadeABC
  MIC: 1 mg/L
Acinetobacter baumannii; [25]
  MIC: 0.25 mg/L
Acinetobacter baumannii; [26]
  MIC: 8 mg/L
Acinetobacter baumannii; [27]
  MIC: 32 mg/L

## CC(C)(O/N=C(\C(=O)N[C@@H]1C(=O)N2C(C(=O)[O-])=C(C[n+]3ccccc3)CS[C@H]12)c1csc(N)n1)C(=O)O [Ceftazidime]
Pseudomonas aeruginosa; [28]
  MIC: 1 mg/L
Pseudomonas aeruginosa; PAM1154, xeruborbactam 2 µg/ml
  MIC: 0.25 mg/L
Pseudomonas aeruginosa; PAM1154, xeruborbactam 4 µg/ml
  MIC: 0.25 mg/L
Pseudomonas aeruginosa; PAM1154, xeruborbactam 8 µg/ml
  MIC: 0.25 mg/L
Klebsiella pneumoniae; Klebsiella pneumoniae, BAA2814
  MIC: 512 mg/L

## Nc1nc(/C(=C/CC(=O)O)C(=O)N[C@@H]2C(=O)N3C(C(=O)O)=CCS[C@H]23)cs1 [Ceftibuten]
Klebsiella pneumoniae
  fold decrease compared to MIC of antibiotic alone: 0.015 (4) fold and 0.008 (8) fold
Klebsiella pneumoniae; [29]
  fold decrease compared to MIC of antibiotic alone: 2 fold
Klebsiella pneumoniae; [30]
  fold decrease compared to MIC of antibiotic alone: 2 fold
Klebsiella pneumoniae; [31]
  fold decrease compared to MIC of antibiotic alone: 2 fold
Klebsiella pneumoniae; [32]
  fold decrease compared to MIC of antibiotic alone: 4 fold
Klebsiella pneumoniae; Klebsiella pneumoniae
  MIC: 0.06 mg/L
Klebsiella pneumoniae; [33]
  MIC: 0.125 mg/L
Klebsiella pneumoniae; [34]
  MIC: 0.125 mg/L

## C[C@@H](O)[C@H]1C(=O)N2C(C(=O)O)=C(SCCN=CN)C[C@H]12 [Imipenem]
Pseudomonas aeruginosa; [28]
  MIC: 1 mg/L
Pseudomonas aeruginosa; PAM1154, xeruborbactam 2 µg/ml
  MIC: 0.5 mg/L
Pseudomonas aeruginosa; PAM1154, xeruborbactam 4 µg/ml
  MIC: 0.25 mg/L
Pseudomonas aeruginosa; PAM1154, xeruborbactam 8 µg/ml
  MIC: 0.125 mg/L
Acinetobacter baumannii; [35]
  MIC: 0.125 mg/L
Acinetobacter baumannii; [36]
  MIC: 0.125 mg/L
Acinetobacter baumannii; [37]
  MIC: 0.03 mg/L
Acinetobacter baumannii; [38]
  MIC: 0.015 mg/L
